From patent publication US8318762B2, “Pyrazolospiroketone acetyl-CoA carboxylase inhibitors” (Pfizer Inc., priority 2008, dated 2012)

Legend:
[1] = system: malonyl-CoA levels in muscle tissue; experiment: Acute in vivo assessment of ACC inhibition: malonyl-CoA levels in muscle tissue (quadriceps); set-up: species or system male Sprague-Dawley Rats; details: relative to chow-fed vehicle control group, % decrease +/- SEM
Method: (§1) The ACC inhibitory activity of the compound of the present invention can be confirmed in vivo by evaluation of their ability to reduce malonyl-CoA levels in liver and muscle tissue from treated animals.
(§2) Measurement of malonyl-CoA production inhibition in experimental animals. In this method, male Sprague-Dawley Rats, maintained on standard chow and water ad libitum (225-275 g), were randomized prior to the study. Animals were either fed, or fasted for 18 hours prior to the beginning of the experiment. Two hours into the light cycle the animals were orally dosed with a volume of 5 mL/kg, (0.5% methyl cellulose; vehicle) or with the appropriate compound (prepared in vehicle). Fed vehicle controls were included to determine baseline tissue malonyl-CoA levels while fasted animals were included to determine the effect fasting had on malonyl-CoA levels. One hour after compound administration the animals were asphyxiated with CO2 and the tissues were removed. Specifically, blood was collected by cardiac puncture and placed into BD Microtainer tubes containing EDTA (BD Biosciences, NJ), mixed, and placed on ice. Plasma was used to determine drug exposure. Liver and quadriceps were removed, immediately freeze-clamped, wrapped in foil and stored in liquid nitrogen.
(§3) Tissues were pulverized under liquid N2 to ensure uniformity in sampling. Malonyl-CoA was extracted from the tissue (150-200 mg) with 5 volumes 10% […] in Lysing Matrix A (MP Biomedicals, PN 6910) in a FastPrep FP120 (Thermo Scientific, speed=5.5; for 45 seconds). The supernatant containing malonyl-CoA was removed from the cell debris after centrifugation at 15000×g for 30 minutes (Eppendorf Centrifuge 5402). Samples were stably frozen at −80 C until analysis is completed.
(§4) Analysis of malonyl CoA levels in liver and muscle tissue can be evaluated using the following methodology.
(§5) The method utilizes the following materials: Malonyl-CoA tetralithium salt and malonyl-^13C3-CoA trilithium salt which were purchased from Isotec (Miamisburg, Ohio, USA), sodium perchlorate (Sigma, cat no. 410241), trichloroacetic acid (ACROS, cat no. 42145), phosphoric acid (J. T. Baker, cat no. 0260-01), ammonium formate (Fluke, cat no. 17843), methanol (HPLC grade, J. T. Baker, cat no. 9093-33), and water (HPLC grade, J. T. Baker, 4218-03) were used to make the necessary mobile phases. Strata-X on-line solid phase extraction columns, 25 μm, 20 mm×2.0 mm I.D (cat no. 00M-S033-B0-CB) were obtained from Phenomenex (Torrance, Calif., USA). SunFire C18 reversed-phase columns, 3.5 μm, 100 mm×3.0 mm I.D. (cat no. 186002543) were purchased from Waters Corporation (Milford, Mass., USA).
(§6) This method may be performed utilizing the following equipment. Two-dimensional chromatography using an Agilent 1100 binary pump, an Agilent 1100 quaternary pump and two Valco Cheminert 6-port two position valves. Samples were introduced via a LEAP HTC PAL auto sampler with Peltier cooled stack maintained at 10° C. and a 20 μL sampling loop. The needle wash solutions for the autosampler are 10% trichloroacetic acid in water (w/v) for Wash 1 and 90:10 methanol:water for Wash 2. The analytical column (Sunfire) was maintained at 35° C. using a MicroTech Scientific Micro-LC Column Oven. The eluant was analyzed on an ABI Sciex API3000 triple quadrupole mass spectrometer with Turbo Ion Spray.
(§7) Two-dimensional chromatography was performed in parallel using distinct gradient elution conditions for on-line solid phase extraction and reversed-phase chromatography. The general design of the method was such that the first dimension was utilized for sample clean-up and capture of the analyte of interest followed by a brief coupling of both dimensions for elution from the first dimension onto the second dimension. The dimensions were subsequently uncoupled allowing for gradient elution of the analyte from the second dimension for quantification while simultaneously preparing the first dimension for the next sample in the sequence. […]

[2] = system: malonyl-CoA levels in liver; experiment: Acute in vivo assessment of ACC inhibition: malonyl-CoA levels in liver tissue; set-up: species or system male Sprague-Dawley Rats; details: relative to chow-fed vehicle control group, % decrease +/- SEM
Method: as §1, §2, §3, §4, §5, §6, §7

[3] = target: T1, recombinant human ACC2 (Homo sapiens, UniProt O00763); experiment: Measurement of human ACC2 inhibition (recombinant hACC2 Transcreener ADP detection FP assay); assay type: biochemical; details: recombinant hACC2 transcreener assay; read-out: rhACC2 IC50
T1 construct: a full length Cytomax clone of ACC2 was purchased from Cambridge Bioscience Limited; made in house; host or cells: CHO cells (tetracycline induction, pcDNA5 FRT TO-TOPO); purified on a Softlink Soft Release Avidin column
T1 sequence (O00763 whole entry): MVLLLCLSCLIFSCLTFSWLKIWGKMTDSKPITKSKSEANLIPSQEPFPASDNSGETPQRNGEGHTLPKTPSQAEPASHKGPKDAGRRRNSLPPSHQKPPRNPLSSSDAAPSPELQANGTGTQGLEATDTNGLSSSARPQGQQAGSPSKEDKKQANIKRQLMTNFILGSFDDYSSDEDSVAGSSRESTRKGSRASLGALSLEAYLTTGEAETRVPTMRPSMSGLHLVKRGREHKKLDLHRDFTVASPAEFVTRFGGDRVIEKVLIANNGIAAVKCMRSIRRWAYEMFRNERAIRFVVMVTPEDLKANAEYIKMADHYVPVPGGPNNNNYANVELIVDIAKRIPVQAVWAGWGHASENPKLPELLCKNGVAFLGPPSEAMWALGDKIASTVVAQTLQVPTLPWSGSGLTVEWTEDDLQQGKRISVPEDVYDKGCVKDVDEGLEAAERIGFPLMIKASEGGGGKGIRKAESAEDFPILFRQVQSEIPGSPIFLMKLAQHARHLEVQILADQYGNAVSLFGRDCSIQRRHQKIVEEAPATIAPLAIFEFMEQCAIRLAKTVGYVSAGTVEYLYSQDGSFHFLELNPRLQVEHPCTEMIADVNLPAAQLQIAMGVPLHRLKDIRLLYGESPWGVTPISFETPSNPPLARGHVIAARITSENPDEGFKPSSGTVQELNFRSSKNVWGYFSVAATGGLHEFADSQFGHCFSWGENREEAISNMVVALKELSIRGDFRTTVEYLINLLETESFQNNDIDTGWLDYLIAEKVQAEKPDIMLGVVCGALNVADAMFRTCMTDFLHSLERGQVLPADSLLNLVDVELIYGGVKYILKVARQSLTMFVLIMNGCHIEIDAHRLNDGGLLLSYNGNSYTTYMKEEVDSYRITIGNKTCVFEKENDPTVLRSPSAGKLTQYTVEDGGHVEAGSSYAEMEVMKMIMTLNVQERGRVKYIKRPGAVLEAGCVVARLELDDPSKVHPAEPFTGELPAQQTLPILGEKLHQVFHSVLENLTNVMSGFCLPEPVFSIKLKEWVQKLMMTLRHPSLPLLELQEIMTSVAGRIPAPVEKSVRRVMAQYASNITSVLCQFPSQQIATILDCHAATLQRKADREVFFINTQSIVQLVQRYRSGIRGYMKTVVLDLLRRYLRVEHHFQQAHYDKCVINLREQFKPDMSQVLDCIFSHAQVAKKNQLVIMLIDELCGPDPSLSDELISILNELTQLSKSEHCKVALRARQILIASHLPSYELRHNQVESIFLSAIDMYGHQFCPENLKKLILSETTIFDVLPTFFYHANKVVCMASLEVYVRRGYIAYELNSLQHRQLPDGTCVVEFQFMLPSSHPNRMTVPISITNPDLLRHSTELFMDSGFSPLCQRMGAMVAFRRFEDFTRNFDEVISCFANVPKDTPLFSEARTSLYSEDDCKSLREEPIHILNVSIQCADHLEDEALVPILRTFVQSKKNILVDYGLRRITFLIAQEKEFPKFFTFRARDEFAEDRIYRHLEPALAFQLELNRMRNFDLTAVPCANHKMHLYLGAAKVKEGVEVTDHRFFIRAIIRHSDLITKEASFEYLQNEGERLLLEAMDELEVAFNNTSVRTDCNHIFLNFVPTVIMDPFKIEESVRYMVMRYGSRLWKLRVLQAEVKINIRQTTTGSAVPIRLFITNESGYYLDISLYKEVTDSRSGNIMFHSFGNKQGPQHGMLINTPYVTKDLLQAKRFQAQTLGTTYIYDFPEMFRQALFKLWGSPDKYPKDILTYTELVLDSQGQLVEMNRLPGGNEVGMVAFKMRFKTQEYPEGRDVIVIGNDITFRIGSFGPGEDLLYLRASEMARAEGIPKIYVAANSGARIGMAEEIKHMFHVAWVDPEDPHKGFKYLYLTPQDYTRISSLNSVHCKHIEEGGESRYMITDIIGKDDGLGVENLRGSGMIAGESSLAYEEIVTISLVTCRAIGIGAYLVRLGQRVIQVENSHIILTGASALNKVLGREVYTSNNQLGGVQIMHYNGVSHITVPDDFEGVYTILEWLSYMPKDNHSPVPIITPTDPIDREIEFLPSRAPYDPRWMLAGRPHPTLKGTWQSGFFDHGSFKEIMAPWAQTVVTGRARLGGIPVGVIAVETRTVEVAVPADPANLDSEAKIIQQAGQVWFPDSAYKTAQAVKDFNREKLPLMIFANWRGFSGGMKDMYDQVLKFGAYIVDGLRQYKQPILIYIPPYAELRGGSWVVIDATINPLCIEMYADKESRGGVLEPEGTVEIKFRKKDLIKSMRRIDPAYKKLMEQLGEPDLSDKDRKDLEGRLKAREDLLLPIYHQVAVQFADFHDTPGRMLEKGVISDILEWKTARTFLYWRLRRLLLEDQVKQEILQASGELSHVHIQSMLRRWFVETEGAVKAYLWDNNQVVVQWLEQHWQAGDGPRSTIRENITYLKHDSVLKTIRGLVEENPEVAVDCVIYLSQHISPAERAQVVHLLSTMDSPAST
How it was run: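 Purified hACC2 from tetracycline-induced CHO cells (avidin-column eluate) was run in 50 mM HEPES pH7.5, 5 mM MgCl2, 5 mM citrate, 2 mM DTT, 0.5 mg/mL BSA with 30 μM acetyl-CoA, 50 μM ATP and 8 mM KHCO3. Reaction lasted 1 hour at room temperature; ADP was detected by Transcreener FP after another 1 hour.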

Row | Structure (SMILES) | IC50 [3] [nM] | Percent decrease in Muscle Malonyl-CoA (quadriceps) ([1]; dose 1 mg/kg) | Percent decrease in Muscle Malonyl-CoA (quadriceps) ([1]; dose 3 mg/kg) | Percent decrease in Muscle Malonyl-CoA (quadriceps) ([1]; dose 10 mg/kg) | Percent decrease in Muscle Malonyl-CoA (quadriceps) ([1]; dose 30 mg/kg) | Percent decrease in Liver Malonyl-CoA ([2]; dose 1 mg/kg) | Percent decrease in Liver Malonyl-CoA ([2]; dose 3 mg/kg) | Percent decrease in Liver Malonyl-CoA ([2]; dose 10 mg/kg) | Percent decrease in Liver Malonyl-CoA ([2]; dose 30 mg/kg)
1 | Cc1cc(C(=O)N2CCC3(CC2)CC(=O)c2nn(C(C)(C)C)cc2O3)cc2cn[nH]c12 [1.042] | 4 | 29.90 (5.21) % | 27.60 (5.87) % | 61.60 (5.38) % | 74.70 (1.37) % | 41.87 (2.70) % | 48.07 (8.08) % | 71.81 (2.36) % | 86.50 (0.72) %
2 | CCn1nc2c(c1C)OC1(CCN(C(=O)c3ccc4cnsc4c3)CC1)CC2=O [24.003] | 411 | – | – | – | – | – | – | – | –
3 | CCn1nc2c(c1C)OC1(CCN(C(=O)c3ccc4nn(C)cc4c3)CC1)CC2=O [25.004] | 122 | – | – | – | – | – | – | – | –
4 | Cc1c2c(nn1C)C(=O)CC1(CCN(C(=O)c3ccc4nn(C)cc4c3)CC1)O2 [25.005] | 1540 | – | – | – | – | – | – | – | –

Further lines, with some results ahead:

Row | IC50 [3] [nM] | Structure (SMILES) | Percent decrease in Muscle Malonyl-CoA (quadriceps) ([1]; dose 1 mg/kg) | Percent decrease in Muscle Malonyl-CoA (quadriceps) ([1]; dose 3 mg/kg) | Percent decrease in Muscle Malonyl-CoA (quadriceps) ([1]; dose 10 mg/kg) | Percent decrease in Muscle Malonyl-CoA (quadriceps) ([1]; dose 30 mg/kg) | Percent decrease in Liver Malonyl-CoA ([2]; dose 1 mg/kg) | Percent decrease in Liver Malonyl-CoA ([2]; dose 3 mg/kg) | Percent decrease in Liver Malonyl-CoA ([2]; dose 10 mg/kg) | Percent decrease in Liver Malonyl-CoA ([2]; dose 30 mg/kg)
5 | 11 | CCn1nc2c(c1C)OC1(CCN(C(=O)c3cc(C)c4[nH]nc(C)c4c3)CC1)CC2=O [1.001] | 5.69 (8.73) % | 2.90 (4.29) % | 22.83 (5.72) % | 48.03 (2.63) % | 28.29 (8.40) % | 30.37 (11.50) % | 45.45 (3.51) % | 54.31 (7.63) %
6 | 11 | CCn1cc2c(n1)C(=O)CC1(CCN(C(=O)c3cc(C)c4[nH]nc(C)c4c3)CC1)O2 [1.003] | −3.72 (8.87) % | 21.23 (8.81) % | 33.30 (4.83) % | 48.81 (3.51) % | 31.45 (4.12) % | 47.61 (4.70) % | 67.40 (5.67) % | 70.47 (2.48) %
7 | 2 | Cc1n[nH]c2c(C)cc(C(=O)N3CCC4(CC3)CC(=O)c3nn(C(C)(C)C)cc3O4)cc12 [1.012] | 31.53 (3.58) % | 43.01 (4.24) % | 59.48 (5.28) % | 71.08 (2.18) % | 40.32 (6.24) % | 54.87 (3.22) % | 75.72 (2.47) % | 86.52 (1.49) %
